Results taken from patent publication US20140170208A1, “TRANSDERMAL PATCH FORMULATION” (LABTEC GMBH, priority 2009, published 2014).
Where two headings read alike, the source gives them in different places.

What was measured:
[1] = Method: Rasagiline base (50 mg) was dissolved in the presented solvents (0.14 g) and the placed into an over at 70° C. to monitor its loss.
[2] = remark: listed apart in the source
Method: 1.5 Further Solubility Experiments Using IPM and “Silicone Oil 1000”
1.7 Concentrating of Rasagiline in IPM
2.2 Solubility of Rasagiline in Polidocanol
Experiment 3.8: Rasagiline Solubility in a Plastoid Bneutral Oil Solution
• 50 mg rasagiline WE 8596 in 300 mg Plastoid B-solution from exp.

[3] = remark: listed apart in the source
Source text: Pilot Test Regarding the Solubility of Rasagiline Base in Non-Volatile Solvents for Use in a TDS
1.1 Solubility of Rasagiline Base

[4] = ca. 20-25 mg in 0.5 g or mL, ca. 1:20 mixture
[5] = ca. 20-25 mg in 1.0 g or mL, ca. 1:40 mixture

In the case of `C#CCN[C@@H]1CCc2ccccc21` [rasagiline base, rasagiline], the “Loss of rasagiline substance after removal of solvent by drying (FIG. 3)” value ([1]; 50 mg in 0.14 g pure water, oven at 70° C.) was “significant sublimation”, the “Sublimation of rasagiline base at 60-70° C.” value ([1]; melted in beaker glass at 60-70° C., covered with ice-cold watch glass) was “re-sublimates” and the “Rasagiline solubility in a Plastoid B neutral oil solution” value [2] was “dissolved”. For the same compound, the “Solubility in silicone oil 1000” value [2] was 25-30 mg/g silicone oil 1000, the “Solubility of rasagiline in polidocanol” value [2] was “completely soluble” and the “Solubility of rasagiline base in Cremophor EL” value [3, 4] was “Nearly completely”. The “Solubility of rasagiline base in Glycerol anhydrous” value [3, 4] was “Not Solubilised”, the “Solubility of rasagiline base in Isopropyl myristate (IPM)” value [3, 4] was “Solubilised” and the “Solubility of rasagiline base in PEG 400” value [3, 4] was “Solubilised”. The “Solubility of rasagiline base in Polysorbat 80” value [3, 4] was “Solubilised”, the “Solubility of rasagiline base in Propylenglycol” value [3, 4] was “Solubilised” and the “Solubility of rasagiline base in Silicone oil 1000” value [3, 4] was “Not Solubilised”. The “Solubility of rasagiline base in Vitamin-E-acetate” value [3, 4] was “Nearly completely”, the “Solubility of rasagiline base in paraffine, viscous” value [3, 4] was “Not Solubilised” and the “Solubility of rasagiline base in Cremophor EL” value [3, 5] was “Solubilised”. The “Solubility of rasagiline base in Glycerol anhydrous” value [3, 5] was “Not completely solubilised,”, the “Solubility of rasagiline base in Isopropyl myristate (IPM)” value [3, 5] was “Solubilised” and the “Solubility of rasagiline base in PEG 400” value [3, 5] was “Solubilised”. The “Solubility of rasagiline base in Polysorbat 80” value [3, 5] was “Solubilised”, the “Solubility of rasagiline base in Propylenglycol” value [3, 5] was “Solubilised” and the “Solubility of rasagiline base in Silicone oil 1000” value [3, 5] was “Solubilised”. For the same compound, the “Solubility of rasagiline base in Vitamin-E-acetate” value [3, 5] was “Solubilised” and the “Solubility of rasagiline base in paraffine, viscous” value [3, 5] was “Solubilised”.
